# Measured values: PMC10033419, “Blocking NS3–NS4B interaction inhibits dengue virus in non-human primates” (Nature, 2023)
# Several values for one entry are separate records, joined by “and”; a condition that tells them apart may be missing. Equal entries are not always repeated. Where two headings read alike, the source gives them in different places.
# Test system: DENV-2 RL
# Assay: microbe, parasite or virus in culture
# Type: cell-based
compound,measurement,setting,value
COc1cc(N[C@H](C(=O)c2c[nH]c3ccc(OC(F)(F)F)cc23)c2ccc(Cl)cc2OC)cc(S(C)(=O)=O)c1 [JNJ-1802],EC50,"A sample, passage 20, read-out: EC50 values Ave",32.2 nM
same,EC50,"A sample, passage 21, read-out: EC50 values Ave",32.2 nM
same,EC50,"A sample, passage 22, read-out: EC50 values Ave",32.2 nM
same,EC50,"A sample, passage 23, read-out: EC50 values Ave",32.2 nM
same,EC50,"B sample, passage 29, read-out: EC50 values Ave",32.2 nM
same,EC50,"B sample, passage 30, read-out: EC50 values Ave",32.2 nM
same,EC50,"Dengue virus, DENV2, Vero, read-out: EC50 by microscopic evaluation of CPE, experiment A, passage 0",0.06 nM
same,EC50,"Dengue virus, DENV2, Vero, read-out: EC50 by microscopic evaluation of CPE, experiment A, passage 5",0.06 nM
same,EC50,"Dengue virus, DENV2, Vero, read-out: EC50 by microscopic evaluation of CPE, experiment A, passage 10",0.25 nM
same,EC50,"Dengue virus, DENV2, Vero, read-out: EC50 by microscopic evaluation of CPE, experiment A, passage 15",1 nM
same,EC50,"Dengue virus, DENV2, Vero, read-out: EC50 by microscopic evaluation of CPE, experiment A, passage 25",64 nM
same,EC50,"Dengue virus, DENV2, Vero, read-out: EC50 by microscopic evaluation of CPE, experiment A, passage 30",260 nM
same,EC50,"Dengue virus, DENV2, Vero, read-out: EC50 by microscopic evaluation of CPE, experiment A, passage 35",260 nM
same,EC50,"Dengue virus, DENV2, Vero, read-out: EC50 by microscopic evaluation of CPE, experiment A, passage 40",1290 nM
same,EC50,"Dengue virus, DENV2, Vero, read-out: EC50 by microscopic evaluation of CPE, experiment A, passage 42",1290 nM
same,EC50,"Dengue virus, DENV2, Vero, read-out: EC50 by microscopic evaluation of CPE, experiment B, passage 0",0.06 nM
same,EC50,"Dengue virus, DENV2, Vero, read-out: EC50 by microscopic evaluation of CPE, experiment B, passage 5",0.06 nM
same,EC50,"Dengue virus, DENV2, Vero, read-out: EC50 by microscopic evaluation of CPE, experiment B, passage 20",0.5 nM
same,EC50,"Dengue virus, DENV2, Vero, read-out: EC50 by microscopic evaluation of CPE, experiment B, passage 25",4 nM
same,EC50,"Dengue virus, DENV2, Vero, read-out: EC50 by microscopic evaluation of CPE, experiment B, passage 35",80 nM
same,EC50,"Dengue virus, DENV2, Vero, read-out: EC50 by microscopic evaluation of CPE, experiment B, passage 45",640 nM
same,EC50,"Dengue virus, DENV2, Vero, read-out: EC50 by microscopic evaluation of CPE, experiment B, passage 50",1290 nM
same,EC50,"Dengue virus, DENV2, Vero, read-out: EC50 values Ave, A sample, passage 1",3.7e-05 µg/mL and 0.063 nM
same,EC50,"Dengue virus, DENV2, Vero, read-out: EC50 values Ave, A sample, passage 2",3.7e-05 µg/mL and 0.063 nM
same,EC50,"Dengue virus, DENV2, Vero, read-out: EC50 values Ave, A sample, passage 3",3.7e-05 µg/mL and 0.063 nM
same,EC50,"Dengue virus, DENV2, Vero, read-out: EC50 values Ave, A sample, passage 4",3.7e-05 µg/mL and 0.063 nM
same,EC50,"Dengue virus, DENV2, Vero, read-out: EC50 values Ave, A sample, passage 5",3.7e-05 µg/mL and 0.063 nM
same,EC50,"Dengue virus, DENV2, Vero, read-out: EC50 values Ave, A sample, passage 6",0.126 nM
same,EC50,"Dengue virus, DENV2, Vero, read-out: EC50 values Ave, A sample, passage 7",3.7e-05 µg/mL and 0.063 nM
same,EC50,"Dengue virus, DENV2, Vero, read-out: EC50 values Ave, A sample, passage 8",3.7e-05 µg/mL and 0.063 nM
same,EC50,"Dengue virus, DENV2, Vero, read-out: EC50 values Ave, A sample, passage 9",0.126 nM
same,EC50,"Dengue virus, DENV2, Vero, read-out: EC50 values Ave, A sample, passage 10",0.000146 µg/mL and 0.251 nM
same,EC50,"Dengue virus, DENV2, Vero, read-out: EC50 values Ave, A sample, passage 11",0.000146 µg/mL and 0.251 nM
same,EC50,"Dengue virus, DENV2, Vero, read-out: EC50 values Ave, A sample, passage 12",0.000146 µg/mL and 0.251 nM
same,EC50,"Dengue virus, DENV2, Vero, read-out: EC50 values Ave, A sample, passage 13",0.000293 µg/mL and 0.503 nM
same,EC50,"Dengue virus, DENV2, Vero, read-out: EC50 values Ave, A sample, passage 14",1.01 nM
same,EC50,"Dengue virus, DENV2, Vero, read-out: EC50 values Ave, A sample, passage 15",1.01 nM
same,EC50,"Dengue virus, DENV2, Vero, read-out: EC50 values Ave, A sample, passage 16",0.00117 µg/mL and 2.01 nM
same,EC50,"Dengue virus, DENV2, Vero, read-out: EC50 values Ave, A sample, passage 17",0.00234 µg/mL and 4.02 nM
same,EC50,"Dengue virus, DENV2, Vero, read-out: EC50 values Ave, A sample, passage 18",0.00469 µg/mL and 8.04 nM
same,EC50,"Dengue virus, DENV2, Vero, read-out: EC50 values Ave, A sample, passage 24",0.0375 µg/mL and 64.3 nM
same,EC50,"Dengue virus, DENV2, Vero, read-out: EC50 values Ave, A sample, passage 25",0.0375 µg/mL and 64.3 nM
same,EC50,"Dengue virus, DENV2, Vero, read-out: EC50 values Ave, A sample, passage 26",129 nM
same,EC50,"Dengue virus, DENV2, Vero, read-out: EC50 values Ave, A sample, passage 27",0.15 µg/mL and 257 nM
same,EC50,"Dengue virus, DENV2, Vero, read-out: EC50 values Ave, A sample, passage 28",0.15 µg/mL and 257 nM
same,EC50,"Dengue virus, DENV2, Vero, read-out: EC50 values Ave, A sample, passage 29",0.15 µg/mL and 257 nM
same,EC50,"Dengue virus, DENV2, Vero, read-out: EC50 values Ave, A sample, passage 30",0.15 µg/mL and 257 nM
same,EC50,"Dengue virus, DENV2, Vero, read-out: EC50 values Ave, A sample, passage 31",129 nM
same,EC50,"Dengue virus, DENV2, Vero, read-out: EC50 values Ave, A sample, passage 32",129 nM
same,EC50,"Dengue virus, DENV2, Vero, read-out: EC50 values Ave, A sample, passage 33",0.15 µg/mL and 257 nM
same,EC50,"Dengue virus, DENV2, Vero, read-out: EC50 values Ave, A sample, passage 34",0.15 µg/mL and 257 nM
same,EC50,"Dengue virus, DENV2, Vero, read-out: EC50 values Ave, A sample, passage 35",0.15 µg/mL and 257 nM
same,EC50,"Dengue virus, DENV2, Vero, read-out: EC50 values Ave, A sample, passage 36",0.15 µg/mL and 257 nM
same,EC50,"Dengue virus, DENV2, Vero, read-out: EC50 values Ave, A sample, passage 37",0.3 µg/mL and 515 nM
same,EC50,"Dengue virus, DENV2, Vero, read-out: EC50 values Ave, A sample, passage 38",0.3 µg/mL and 515 nM
same,EC50,"Dengue virus, DENV2, Vero, read-out: EC50 values Ave, A sample, passage 39",1290 nM
same,EC50,"Dengue virus, DENV2, Vero, read-out: EC50 values Ave, A sample, passage 40",1290 nM
same,EC50,"Dengue virus, DENV2, Vero, read-out: EC50 values Ave, A sample, passage 41",1290 nM
same,EC50,"Dengue virus, DENV2, Vero, read-out: EC50 values Ave, A sample, passage 42 (END)",1290 nM
same,EC50,"Dengue virus, DENV2, Vero, read-out: EC50 values Ave, B sample, passage 1",3.7e-05 µg/mL and 0.063 nM
same,EC50,"Dengue virus, DENV2, Vero, read-out: EC50 values Ave, B sample, passage 2",3.7e-05 µg/mL and 0.063 nM
same,EC50,"Dengue virus, DENV2, Vero, read-out: EC50 values Ave, B sample, passage 3",3.7e-05 µg/mL and 0.063 nM
same,EC50,"Dengue virus, DENV2, Vero, read-out: EC50 values Ave, B sample, passage 4",3.7e-05 µg/mL and 0.063 nM
same,EC50,"Dengue virus, DENV2, Vero, read-out: EC50 values Ave, B sample, passage 5",3.7e-05 µg/mL and 0.063 nM
same,EC50,"Dengue virus, DENV2, Vero, read-out: EC50 values Ave, B sample, passage 6",0.126 nM
same,EC50,"Dengue virus, DENV2, Vero, read-out: EC50 values Ave, B sample, passage 7",0.126 nM
